Bounds are passed on as bounds.

For assay [1], the target named is 5-hydroxytryptamine receptor 2A (Homo sapiens, UniProt P28223). The assay can be described thus: Displacement of [3H]Ketanserin from human recombinant 5HT2A receptor incubated for […] by microbeta scintillation counting method. (Displacement assays read how much labelled ligand stays bound in the presence of the test substance.)
In assay [2] the target is T1, 5-hydroxytryptamine receptor 2C (Homo sapiens, UniProt P28335).
T1 sequence (P28335 whole entry): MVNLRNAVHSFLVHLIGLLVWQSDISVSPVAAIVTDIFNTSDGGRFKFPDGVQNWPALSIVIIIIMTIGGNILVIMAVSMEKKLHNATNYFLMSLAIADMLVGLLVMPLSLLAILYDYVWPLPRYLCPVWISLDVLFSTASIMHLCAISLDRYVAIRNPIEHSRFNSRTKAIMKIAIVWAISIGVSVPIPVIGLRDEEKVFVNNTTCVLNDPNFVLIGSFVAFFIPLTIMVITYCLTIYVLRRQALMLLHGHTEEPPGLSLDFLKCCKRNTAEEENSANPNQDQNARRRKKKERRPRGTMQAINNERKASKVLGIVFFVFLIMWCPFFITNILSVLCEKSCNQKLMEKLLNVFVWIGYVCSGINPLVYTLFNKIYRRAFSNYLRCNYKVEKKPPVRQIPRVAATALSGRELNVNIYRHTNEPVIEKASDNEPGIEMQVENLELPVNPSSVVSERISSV
The assay can be described thus: Displacement of [3H]Mesulergine from human recombinant 5HT2C receptor incubated for […] by microbeta scintillation counting method.

Assay [3] addresses T2, D(4) dopamine receptor (Homo sapiens, UniProt P21917).
T2 sequence (P21917 whole entry): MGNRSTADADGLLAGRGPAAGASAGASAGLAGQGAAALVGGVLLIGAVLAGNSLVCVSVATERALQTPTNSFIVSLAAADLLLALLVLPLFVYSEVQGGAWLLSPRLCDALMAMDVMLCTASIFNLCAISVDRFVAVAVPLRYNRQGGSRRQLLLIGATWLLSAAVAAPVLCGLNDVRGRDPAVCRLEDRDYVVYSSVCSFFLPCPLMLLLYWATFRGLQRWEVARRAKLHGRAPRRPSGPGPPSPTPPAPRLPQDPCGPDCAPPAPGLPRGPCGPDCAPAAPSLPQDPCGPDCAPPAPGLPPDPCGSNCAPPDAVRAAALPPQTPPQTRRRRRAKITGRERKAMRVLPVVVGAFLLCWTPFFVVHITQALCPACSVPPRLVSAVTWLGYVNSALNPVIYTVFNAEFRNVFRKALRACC
The assay can be described thus: Displacement of [3H]N-methylspiperone from human recombinant dopamine D4 receptor incubated for […] by microbeta scintillation counting method.

Chain of 5-hydroxytryptamine receptor 2A (P28223 whole entry): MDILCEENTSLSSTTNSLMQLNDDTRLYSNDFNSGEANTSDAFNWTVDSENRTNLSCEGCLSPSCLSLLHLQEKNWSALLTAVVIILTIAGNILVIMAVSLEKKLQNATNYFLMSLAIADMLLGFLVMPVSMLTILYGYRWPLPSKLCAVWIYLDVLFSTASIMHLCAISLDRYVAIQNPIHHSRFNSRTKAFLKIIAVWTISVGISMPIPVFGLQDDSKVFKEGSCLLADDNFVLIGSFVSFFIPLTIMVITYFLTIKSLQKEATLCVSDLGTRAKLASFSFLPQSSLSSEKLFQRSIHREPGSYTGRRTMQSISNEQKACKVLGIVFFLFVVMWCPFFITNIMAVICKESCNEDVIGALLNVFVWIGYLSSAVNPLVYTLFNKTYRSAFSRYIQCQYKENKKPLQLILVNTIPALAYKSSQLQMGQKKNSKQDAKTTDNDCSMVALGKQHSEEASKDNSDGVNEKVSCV

Turning to `OC1(c2ccc(Cl)cc2)CC2CCC(C1)N2CCCCc1nc2ccccc2s1` (centres undefined), the Ki (in general, a dissociation constant, usually derived from enzyme kinetics or from competition with a known ligand) in assay [1] is more than 10000 nM; in assay [2], 4570 nM.

In the case of `O=C(CCCCN1CCC(n2c(=O)[nH]c3cc(Cl)ccc32)CC1)c1nc2ccccc2s1`, the Ki in assay [3] turned out to be 1700 nM.

As to `OC1(c2ccc(Cl)cc2)CCN(CCCCc2nc3ccccc3s2)CC1`, the inhibition constant (Ki) in assay [3] was 141 nM.
